Measurements as given in ChEMBL document CHEMBL3352741, “Discovery of VU0431316: a negative allosteric modulator of mGlu5 with activity in a mouse model of anxiety” (Bioorg Med Chem Lett, 2014).
The source made the active and inactive calls. The calls are words filed in the database; no cut-off is given here.

Experiments:
Plasma [1] = assay: Fraction unbound in human plasma by equilibrium dialysis method; assay type: ADME, cell-free
[2] = target: Metabotropic glutamate receptor 2 (Homo sapiens) (UniProt Q14416); assay: Activity at mGlu2 (unknown origin) expressed in HEK293-GIRK cells at 10 uM by thallium flux assay; assay type: cell-based
[3] = Drug level in Harlan CD1 mouse brain at 30 mg/kg, ip after 60 mins; assay type: ADME, organism-based; parameters: dose 30 mg/kg, route intraperitoneal; conditions: read-out: Drug uptake
[4] = Plasma concentration in Harlan CD1 mouse at 30 mg/kg, ip after 30 mins; assay type: ADME, organism-based; parameters: dose 30 mg/kg, route intraperitoneal
[5] = target: Metabotropic glutamate receptor 5 (Rattus norvegicus) (UniProt P31424); assay: Negative allosteric modulator activity at rat mGlu5 expressed in HEK293A cells assessed as reduction in 100 uM glutamate-induced calcium mobilization at 30 uM; assay type: functional, cell-based; conditions: HEK293-A
[6] = Plasma concentration in Harlan CD1 mouse at 30 mg/kg, ip after 15 mins; assay type: ADME, organism-based; parameters: dose 30 mg/kg, route intraperitoneal
[7] = Plasma concentration in Harlan CD1 mouse at 30 mg/kg, ip after 60 mins; assay type: ADME, organism-based; parameters: dose 30 mg/kg, route intraperitoneal
[8] = Drug level in Sprague-Dawley rat brain at 10 mg/kg, po administered as single dose after 60 mins by LC-MS/MS method; assay type: ADME, organism-based; parameters: dose 10 mg/kg, route oral; conditions: read-out: Drug uptake
[9] = target: T1, Metabotropic glutamate receptor 5 (Rattus norvegicus, UniProt P31424); assay: Displacement of [3H]methoxyPEPy from rat mGlu5 expressed in HEK293A cells after 1 hr by scintillation counting method; assay type: cell-based, HEK293-A
Brain = assay: Fraction unbound in mouse brain homogenates by equilibrium dialysis method; assay type: ADME, tissue-based; conditions: brain homogenate
[10] = target: Metabotropic glutamate receptor 4 (Homo sapiens) (UniProt Q14833); assay: Activity at mGlu4 (unknown origin) expressed in HEK293-GIRK cells at 10 uM by thallium flux assay; assay type: cell-based
[11] = Oral bioavailability in Sprague-Dawley rat at 10 mg/kg administered as single dose after 15 to 1440 mins by LC-MS/MS method; assay type: ADME, organism-based; conditions: in vivo
[12] = target: T1, Metabotropic glutamate receptor 5; assay: Negative allosteric modulator activity at rat mGlu5 expressed in HEK293A cells assessed as reduction in glutamate-induced calcium mobilization; assay type: functional, cell-based, HEK293-A
[13] = Tmax in Sprague-Dawley rat at 10 mg/kg, po administered as single dose after 15 to 1440 mins by LC-MS/MS method; assay type: ADME, organism-based; parameters: dose 10 mg/kg, route oral; conditions: in vivo
[14] = Ratio of drug level in brain to plasma in Sprague-Dawley rat at 10 mg/kg, po administered as single dose after 60 mins by LC-MS/MS method; assay type: ADME, organism-based; parameters: dose 10 mg/kg, route oral; conditions: read-out: BPR
[15] = Volume of distribution at steady state in Sprague-Dawley rat at 1 mg/kg, iv after 2 to 1440 mins by LC-MS/MS method; assay type: ADME, organism-based; parameters: dose 1 mg/kg, route intravenous; conditions: in vivo, read-out: Vdss
MDCK [16] = assay: Apparent permeability from basolateral to apical side in wild type MDCK cells; assay type: ADME, cell-based, Canis lupus familiaris; conditions: dog
[17] = Apparent permeability from basolateral to apical side in human Caco2 cells; assay type: ADME, cell-based; conditions: caco-2
[18] = Apparent permeability from apical to basolateral side in human Caco2 cells; assay type: ADME, cell-based; conditions: caco-2
[19] = target: Metabotropic glutamate receptor 8 (Homo sapiens) (UniProt O00222); assay: Activity at mGlu8 (unknown origin) expressed in HEK293-GIRK cells at 10 uM by thallium flux assay; assay type: cell-based
[20] = target: Metabotropic glutamate receptor 7 (Homo sapiens) (UniProt Q14831); assay: Activity at mGlu7 (unknown origin) expressed in HEK293-GIRK cells at 10 uM by thallium flux assay; assay type: cell-based
MDCK [21] = assay: Efflux ratio in wild type MDCK cells; assay type: ADME, cell-based, Canis lupus familiaris; conditions: dog
Cytochrome P450 1A2 = target: T2, Cytochrome P450 1A2 (Homo sapiens, UniProt P05177); assay: Inhibition of CYP1A2 in pooled human liver microsomes in presence of NADPH; assay type: ADME
T2 sequence (P05177 whole entry): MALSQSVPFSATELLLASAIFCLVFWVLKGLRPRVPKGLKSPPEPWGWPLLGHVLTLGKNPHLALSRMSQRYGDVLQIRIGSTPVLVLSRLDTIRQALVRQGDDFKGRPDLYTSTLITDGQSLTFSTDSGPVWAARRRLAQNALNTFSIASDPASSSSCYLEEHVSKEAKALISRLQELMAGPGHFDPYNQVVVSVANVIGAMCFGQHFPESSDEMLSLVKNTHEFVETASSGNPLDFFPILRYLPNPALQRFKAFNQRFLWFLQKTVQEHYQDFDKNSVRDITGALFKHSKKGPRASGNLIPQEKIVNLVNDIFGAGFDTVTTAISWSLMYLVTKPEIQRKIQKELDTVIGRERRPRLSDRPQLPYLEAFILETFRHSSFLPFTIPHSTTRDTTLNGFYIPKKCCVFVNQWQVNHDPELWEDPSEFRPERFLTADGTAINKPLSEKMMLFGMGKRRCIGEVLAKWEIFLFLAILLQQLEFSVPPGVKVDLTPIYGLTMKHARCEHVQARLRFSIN

[22] = target: Metabotropic glutamate receptor 1 (Rattus norvegicus) (UniProt P23385); assay: Activity at rat mGlu1 expressed in HEK293 cells at 10 uM by calcium flux assay; assay type: functional, cell-based
Cytochrome P450 3A4 = Cytochrome P450 3A4 (Homo sapiens, UniProt P08684); assay: Inhibition of CYP3A4 in pooled human liver microsomes in presence of NADPH; assay type: ADME
[23] = AUC in Sprague-Dawley rat at 1 mg/kg, iv after 2 to 1440 mins by LC-MS/MS method; assay type: ADME, organism-based; parameters: dose 1 mg/kg, route intravenous; conditions: plasma
[24] = target: Metabotropic glutamate receptor 3 (Homo sapiens) (UniProt Q14832); assay: Activity at mGlu3 (unknown origin) expressed in HEK293-GIRK cells at 10 uM by thallium flux assay; assay type: cell-based
Mus musculus = assay: In vivo mGlu5 negative allosteric modulator activity in Harlan CD1 mouse marble burying model of anxiety assessed as reduction in marble burying at => 10 mg/kg, ip dosed 15 mins before test; assay type: functional, organism-based; parameters: dose 10 mg/kg
Cytochrome P450 2D6 = Cytochrome P450 2D6 (Homo sapiens, UniProt P10635); assay: Inhibition of CYP2D6 in pooled human liver microsomes in presence of NADPH; assay type: ADME
[25] = Drug level in Harlan CD1 mouse brain at 30 mg/kg, ip after 15 mins; assay type: ADME, organism-based; parameters: dose 30 mg/kg, route intraperitoneal; conditions: read-out: Drug uptake
[26] = Efflux ratio in human Caco2 cells; assay type: ADME, cell-based; conditions: caco-2
[27] = Half life in Sprague-Dawley rat at 1 mg/kg, iv after 2 to 1440 mins by LC-MS/MS method; assay type: ADME, organism-based; parameters: dose 1 mg/kg, route intravenous; conditions: in vivo
[28] = target: Metabotropic glutamate receptor 6 (Homo sapiens) (UniProt O15303); assay: Activity at mGlu6 (unknown origin) expressed in HEK293-GIRK cells at 10 uM by thallium flux assay; assay type: cell-based
[29] = Clearance in Sprague-Dawley rat at 1 mg/kg, iv after 2 to 1440 mins by LC-MS/MS method; assay type: ADME, organism-based; parameters: dose 1 mg/kg, route intravenous; conditions: in vivo
[30] = AUC in Sprague-Dawley rat at 10 mg/kg, po administered as single dose after 15 to 1440 mins by LC-MS/MS method; assay type: ADME, organism-based; parameters: dose 10 mg/kg, route oral; conditions: plasma
[31] = target: Metabotropic glutamate receptor 5 (Homo sapiens, UniProt P41594); assay: Negative allosteric modulator activity at human mGlu5 assessed as reduction in glutamate-induced calcium mobilization; assay type: functional
Plasma [32] = assay: Fraction unbound in cynomolgus monkey plasma by equilibrium dialysis method; assay type: ADME, cell-free, Macaca fascicularis
[33] = Drug level in Harlan CD1 mouse brain at 30 mg/kg, ip after 30 mins; assay type: ADME, organism-based; parameters: dose 30 mg/kg, route intraperitoneal; conditions: read-out: Drug uptake
[34] = Cmax in Sprague-Dawley rat at 10 mg/kg, po administered as single dose after 15 to 1440 mins by LC-MS/MS method; assay type: ADME, organism-based; parameters: dose 10 mg/kg, route oral; conditions: in vivo
MDCK [35] = assay: Apparent permeability from apical to basolateral side in wild type MDCK cells; assay type: ADME, cell-based, Canis lupus familiaris; conditions: dog
[36] = Plasma concentration in Sprague-Dawley rat at 10 mg/kg, po administered as single dose after 60 mins by LC-MS/MS method; assay type: ADME, organism-based; parameters: dose 10 mg/kg, route oral
[37] = Drug level in Sprague-Dawley rat hepatic portal vein at 10 mg/kg, po administered as single dose after 60 mins by LC-MS/MS method; assay type: ADME, organism-based; parameters: dose 10 mg/kg, route oral; conditions: read-out: Drug uptake
Plasma [38] = assay: Fraction unbound in rat plasma by equilibrium dialysis method; assay type: ADME, cell-free
Cytochrome P450 2C9 = Cytochrome P450 2C9 (Homo sapiens, UniProt P11712); assay: Inhibition of CYP2C9 in pooled human liver microsomes in presence of NADPH; assay type: ADME
Chain of Cytochrome P450 2C9 (P11712 whole entry): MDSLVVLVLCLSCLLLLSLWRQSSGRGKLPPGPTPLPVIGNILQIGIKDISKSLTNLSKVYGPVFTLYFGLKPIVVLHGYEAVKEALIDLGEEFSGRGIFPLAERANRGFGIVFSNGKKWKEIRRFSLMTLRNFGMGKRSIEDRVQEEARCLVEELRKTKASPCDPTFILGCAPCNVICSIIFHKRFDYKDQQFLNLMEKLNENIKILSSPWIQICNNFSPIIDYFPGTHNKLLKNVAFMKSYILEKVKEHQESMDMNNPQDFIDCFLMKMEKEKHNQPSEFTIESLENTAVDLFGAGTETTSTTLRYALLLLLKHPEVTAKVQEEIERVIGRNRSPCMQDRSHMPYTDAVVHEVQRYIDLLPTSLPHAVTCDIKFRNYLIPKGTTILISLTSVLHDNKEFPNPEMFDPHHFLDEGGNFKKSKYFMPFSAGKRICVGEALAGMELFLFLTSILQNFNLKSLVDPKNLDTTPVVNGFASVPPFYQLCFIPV

T1 sequence (P31424 whole entry): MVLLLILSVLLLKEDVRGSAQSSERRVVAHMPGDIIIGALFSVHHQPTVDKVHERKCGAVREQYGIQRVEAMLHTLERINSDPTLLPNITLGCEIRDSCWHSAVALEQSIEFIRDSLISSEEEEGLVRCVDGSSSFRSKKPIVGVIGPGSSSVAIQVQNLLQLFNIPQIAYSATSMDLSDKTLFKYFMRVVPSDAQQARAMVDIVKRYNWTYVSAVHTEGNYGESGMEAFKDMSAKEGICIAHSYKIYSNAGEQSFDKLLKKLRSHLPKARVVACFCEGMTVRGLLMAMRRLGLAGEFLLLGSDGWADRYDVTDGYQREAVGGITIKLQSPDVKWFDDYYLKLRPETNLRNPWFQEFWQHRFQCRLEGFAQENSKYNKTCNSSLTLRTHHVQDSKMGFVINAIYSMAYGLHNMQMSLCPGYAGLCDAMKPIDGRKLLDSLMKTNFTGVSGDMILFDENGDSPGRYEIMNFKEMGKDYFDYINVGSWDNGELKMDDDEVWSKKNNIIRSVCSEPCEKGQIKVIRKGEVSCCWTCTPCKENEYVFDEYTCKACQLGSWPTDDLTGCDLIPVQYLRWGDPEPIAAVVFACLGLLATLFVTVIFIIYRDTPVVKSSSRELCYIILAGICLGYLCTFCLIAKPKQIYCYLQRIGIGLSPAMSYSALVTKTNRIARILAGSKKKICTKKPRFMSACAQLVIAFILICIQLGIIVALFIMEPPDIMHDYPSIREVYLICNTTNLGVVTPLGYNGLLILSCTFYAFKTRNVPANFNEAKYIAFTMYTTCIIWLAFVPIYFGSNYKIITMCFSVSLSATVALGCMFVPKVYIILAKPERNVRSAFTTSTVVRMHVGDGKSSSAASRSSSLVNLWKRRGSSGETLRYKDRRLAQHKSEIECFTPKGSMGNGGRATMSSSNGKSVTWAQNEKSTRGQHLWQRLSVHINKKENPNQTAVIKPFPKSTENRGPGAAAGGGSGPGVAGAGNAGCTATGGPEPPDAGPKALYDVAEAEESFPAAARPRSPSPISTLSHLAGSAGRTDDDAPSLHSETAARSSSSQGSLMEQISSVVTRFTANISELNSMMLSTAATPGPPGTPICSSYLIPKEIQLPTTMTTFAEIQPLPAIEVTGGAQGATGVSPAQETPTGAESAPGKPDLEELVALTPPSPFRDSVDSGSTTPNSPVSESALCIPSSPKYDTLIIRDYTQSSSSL
Chain of Cytochrome P450 2D6 (P10635 whole entry): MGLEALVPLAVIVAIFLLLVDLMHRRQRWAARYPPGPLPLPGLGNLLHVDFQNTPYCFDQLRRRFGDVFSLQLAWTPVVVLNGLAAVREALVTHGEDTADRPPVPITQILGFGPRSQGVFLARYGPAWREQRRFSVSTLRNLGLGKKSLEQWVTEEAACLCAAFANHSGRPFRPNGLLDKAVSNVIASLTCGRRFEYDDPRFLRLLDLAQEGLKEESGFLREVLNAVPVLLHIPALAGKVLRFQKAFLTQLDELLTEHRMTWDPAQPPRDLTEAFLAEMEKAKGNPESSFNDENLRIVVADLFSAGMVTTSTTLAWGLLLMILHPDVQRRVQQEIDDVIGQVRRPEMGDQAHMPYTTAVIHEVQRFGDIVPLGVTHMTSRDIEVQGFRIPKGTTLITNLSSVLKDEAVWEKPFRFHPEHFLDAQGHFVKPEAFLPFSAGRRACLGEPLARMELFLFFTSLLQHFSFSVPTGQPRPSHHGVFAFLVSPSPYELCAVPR
Chain of Metabotropic glutamate receptor 7 (Homo sapiens) (Q14831 whole entry): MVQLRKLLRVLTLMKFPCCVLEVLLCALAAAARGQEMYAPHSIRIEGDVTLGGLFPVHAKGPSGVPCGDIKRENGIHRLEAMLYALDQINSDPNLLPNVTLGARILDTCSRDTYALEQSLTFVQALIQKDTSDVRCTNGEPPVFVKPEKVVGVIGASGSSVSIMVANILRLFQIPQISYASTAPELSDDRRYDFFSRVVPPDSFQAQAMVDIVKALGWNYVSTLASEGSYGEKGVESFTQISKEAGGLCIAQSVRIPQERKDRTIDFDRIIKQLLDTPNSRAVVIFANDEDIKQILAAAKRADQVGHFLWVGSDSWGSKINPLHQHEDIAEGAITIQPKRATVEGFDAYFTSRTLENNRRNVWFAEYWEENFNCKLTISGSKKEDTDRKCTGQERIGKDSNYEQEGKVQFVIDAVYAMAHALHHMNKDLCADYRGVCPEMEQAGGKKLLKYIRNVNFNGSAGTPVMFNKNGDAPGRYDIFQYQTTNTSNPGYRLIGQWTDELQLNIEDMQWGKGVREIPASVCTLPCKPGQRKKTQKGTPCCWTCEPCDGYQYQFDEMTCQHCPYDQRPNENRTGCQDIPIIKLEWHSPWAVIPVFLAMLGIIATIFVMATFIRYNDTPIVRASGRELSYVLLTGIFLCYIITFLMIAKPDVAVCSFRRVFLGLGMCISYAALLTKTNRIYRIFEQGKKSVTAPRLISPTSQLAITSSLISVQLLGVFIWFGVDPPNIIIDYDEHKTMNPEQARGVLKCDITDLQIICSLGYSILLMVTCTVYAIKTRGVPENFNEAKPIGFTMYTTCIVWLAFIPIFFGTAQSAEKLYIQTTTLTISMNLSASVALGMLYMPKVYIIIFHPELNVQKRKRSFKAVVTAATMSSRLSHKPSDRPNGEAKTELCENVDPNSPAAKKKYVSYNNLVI
Chain of Cytochrome P450 3A4 (P08684 whole entry): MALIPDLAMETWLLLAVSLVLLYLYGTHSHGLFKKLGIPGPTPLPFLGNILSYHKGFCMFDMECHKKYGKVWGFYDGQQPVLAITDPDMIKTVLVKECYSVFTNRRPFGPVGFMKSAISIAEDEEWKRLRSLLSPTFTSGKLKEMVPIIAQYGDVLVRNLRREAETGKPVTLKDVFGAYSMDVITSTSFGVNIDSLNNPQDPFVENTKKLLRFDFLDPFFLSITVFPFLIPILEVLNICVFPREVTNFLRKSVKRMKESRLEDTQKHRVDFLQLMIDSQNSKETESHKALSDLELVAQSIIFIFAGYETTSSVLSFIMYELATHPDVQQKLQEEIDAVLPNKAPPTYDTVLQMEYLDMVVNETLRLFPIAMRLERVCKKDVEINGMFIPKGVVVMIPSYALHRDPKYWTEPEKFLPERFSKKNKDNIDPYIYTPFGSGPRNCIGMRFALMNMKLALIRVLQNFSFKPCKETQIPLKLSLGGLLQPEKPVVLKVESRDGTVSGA
Chain of Metabotropic glutamate receptor 8 (Homo sapiens) (O00222 whole entry): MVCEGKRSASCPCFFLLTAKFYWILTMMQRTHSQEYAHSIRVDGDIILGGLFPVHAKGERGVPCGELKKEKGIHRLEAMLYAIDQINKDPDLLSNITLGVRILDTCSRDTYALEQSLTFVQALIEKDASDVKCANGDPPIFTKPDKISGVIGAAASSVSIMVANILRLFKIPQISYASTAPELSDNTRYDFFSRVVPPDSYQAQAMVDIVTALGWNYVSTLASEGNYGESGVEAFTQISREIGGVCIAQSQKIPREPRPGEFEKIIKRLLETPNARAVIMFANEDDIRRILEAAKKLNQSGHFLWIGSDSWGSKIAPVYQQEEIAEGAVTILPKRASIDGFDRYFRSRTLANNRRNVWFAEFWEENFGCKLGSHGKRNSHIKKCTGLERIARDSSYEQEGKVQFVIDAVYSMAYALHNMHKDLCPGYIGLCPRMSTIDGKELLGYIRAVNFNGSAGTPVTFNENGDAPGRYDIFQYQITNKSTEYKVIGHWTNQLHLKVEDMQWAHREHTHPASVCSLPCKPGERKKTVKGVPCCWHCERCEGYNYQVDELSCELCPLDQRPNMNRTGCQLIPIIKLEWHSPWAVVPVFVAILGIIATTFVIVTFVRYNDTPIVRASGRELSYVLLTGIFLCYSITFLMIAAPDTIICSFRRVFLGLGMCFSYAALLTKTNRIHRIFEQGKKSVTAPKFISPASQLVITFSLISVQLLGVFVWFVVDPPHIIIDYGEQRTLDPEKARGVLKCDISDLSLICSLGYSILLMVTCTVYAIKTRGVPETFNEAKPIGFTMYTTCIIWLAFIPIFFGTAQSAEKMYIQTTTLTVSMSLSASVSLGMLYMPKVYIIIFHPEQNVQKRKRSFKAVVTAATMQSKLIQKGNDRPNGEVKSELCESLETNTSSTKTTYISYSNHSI

Q: What does the source list for `O=C(Nc1cncc(Oc2cncnc2)n1)c1cc(Cl)ccn1`?
A: Fu (Plasma [1]): 0.12; Activity [2]: inactive; concentration at 1 h [3]: 2800 nM; concentration at 0.5 h [4]: 3000 nM; %max [5]: 1.6%; concentration at 0.25 h [6]: 3990 nM; concentration at 1 h [7]: 1690 nM; concentration at 1 h [8]: 1450 nM; Ki [9]: 37 nM; Fu (Brain): 0.054; Activity [10]: inactive; bioavailability [11]: 48%; IC50 [12]: 62.4 nM; Tmax [13]: 4 h; Kp at 1 h [14]: 1.6; Vd [15]: 2.7 L/kg; Papp (MDCK [16]): 45 ×10⁻⁶ cm/s; Papp [17]: 71.4 ×10⁻⁶ cm/s; Papp [18]: 66.8 ×10⁻⁶ cm/s; Activity [19]: inactive; Activity [20]: inactive; Ratio (MDCK [21]): 0.89; IC50 (Cytochrome P450 1A2): 600 nM; Activity [22]: inactive; IC50 (Cytochrome P450 3A4): > 30000 nM; AUC [23]: 1.73 µM·h; Activity [24]: inactive; Activity (Mus musculus): Active; IC50 (Cytochrome P450 2D6): > 30000 nM; concentration at 0.25 h [25]: 6210 nM; Ratio [26]: 1.07; half-life [27]: 3.22 h; Activity [28]: inactive; clearance [29]: 30.2 mL/min/kg; AUC [30]: 8.37 µM·h; IC50 [31]: 85 nM; Fu (Plasma [32]): 0.167; concentration at 0.5 h [33]: 3690 nM; Cmax [34]: 1120 nM; Papp (MDCK [35]): 50.4 ×10⁻⁶ cm/s; concentration at 1 h [36]: 920 nM; concentration at 1 h [37]: 1310 nM; Fu (Plasma [38]): 0.179; IC50 (Cytochrome P450 2C9): > 30000 nM
